“And” between values parts separate entries of the source, which are not always exact repeats. Equal values may be shown once.
Tests used:
[1] = system: HT29 cells; test: MTT cell viability assay; type: cell-based, human; details: for reduction of cell viability: relative to DMSO control, 12 h
Protocol: All media and chemicals were purchased from Sigma Aldrich (Castle Hill, NSW, Australia) unless otherwise stated. HT29 human colorectal cancer cell line (passage no. 36-42) were cultured (37 °C and 5% CO2) in Dulbecco’s Modified Eagle’s Medium (DMEM) supplemented with 4500 mg/L L-glutamine, 10% FBS, 100 U/mL Penicillin/Streptomycin and 1% Non-essential Amino Acid (100×), until the cells reached 70% confluence. The cells were harvested from flasks by trypsinization (1× Trypsin-EDTA) and were seeded (20,000 cells/well) into clear 96-well plates (Costar®, Mt Martha, VIC, Australia) for measurement of cell viability and white (opaque) 96-well plates (Interpath, Heidelberg West, VIC, Australia) for determination of apoptosis and necrosis. HT29 cells were incubated for 48 h, then the media was removed and the cells were washed with PBS. […] 1% DMSO controls were also included on each plate. Staurosporine (5 µM) for apoptosis and lysis solution (5 μL/well, Promega, Alexandria, NSW, Australia) for necrosis were added to the white plates in triplicate, as positive controls. All cells were treated for 12 h. Morphological changes in the cells were observed on an Olympus CK2 inverted optical microscope (×400 magnification) 12 h after treatment. To measure cell viability, the MTT assay was applied, which measures the reduction of MTT tetrazolium salt to formazan, as previously described. To measure necrosis and apoptosis, CytoTox-ONE Homogeneous Membrane Integrity Assay reagent (Promega) and Caspase-Glo 3/7® assay (Promega) were applied respectively, according to our previous study. These assays were all repeated in triplicate on three separate occasions (n = 3).

[2] = Plasma biochemistry; type: in vivo, mice (C57BL/6J)
Protocol: (§1) To detect the early stage prevention of colon cancer, an established AARGC rodent model with injection of the carcinogen AOM was used. Synthetic 6-bromoisatin at 3 different dosages (0.025, 0.05 and 0.1 mg/g body weight) was administered to mice by daily oral gavage in 100 µL sunflower oil, containing 0.02% Vitamin E, for two weeks. The control group was gavaged with sunflower oil (containing 0.02% Vitamin E) only. After two weeks, all mice were injected with a single intraperitoneal (i.p.) injection of AOM at a dosage of 10 mg/kg bodyweight and euthanized 6 h later by cervical dislocation under anesthesia. […] The distal colon of each mouse was excised and fixed in 10% buffered formalin for 24 h and then embedded in paraffin for histological and immunohistological examination.
Blood samples (0.5–1 mL) were obtained from the mice under anesthesia by cardiac puncture at time of kill and transferred to Gribbles Veterinary Pathology laboratory, Adelaide within heparinized vacutainer tubes then centrifuged to separate into the cell layer for hematology analysis (Abbott Cell Dyn 3700 analyzer, North Ryde, NSW, Australia) and plasma for biochemistry analysis (Siemens Advia 1800 chemistry analyzer, Erlangen, Germany). The plasma levels of the liver enzymes AST, ALT and ALP were assessed as indicators of hepatotoxicity.

[3] = system: distal colonic epithelial cells; test: AARGC mouse model: Ki-67 proliferation index; type: in vivo, mice (C57BL/6J); details: distal colon, compared to oil control
Protocol: This experiment was conducted under Flinders animal welfare approval number 751-10. A total of 38 wild-type (C57BL/6J) male mice aged 10 weeks were obtained from the Animal Resource Centre, Perth, Western Australia. Mice were divided randomly into 4 groups (ten mice in each treatment group and 8 mice in the sunflower oil only control group) and housed in 8 cages (four to five mice per cage). The mice were given water and food (rodent chow) ad libitum and maintained at the temperature of 22 ± 2 °C and humidity of 80% ± 10% with a 12 h light/dark cycle. Mice were weighed every five days and on the day of kill, and monitored daily for signs of illness, such as weight and hair loss, diarrhea, constipation, rectal bleeding, labored breathing, lethargy, eye and nose discharge.
as §1
Ki-67 is a cell cycle associated antigen and regarded as a useful proliferation marker. Proliferative activity of distal colonic epithelial cells was measured using an antibody specific for the nuclear proliferating antigen ki-67 (rat-anti-mouse clone TEC-3, Dako, Campbellfield, VIC, Australia) in combination with an immunohistochemistry detection method in paraffin embedded sections, as previously described. […]

[4] = 0.025 mg/g, n = 6, 6 h after AOM 10 mg/kg
[5] = 0.05 mg/g, n = 6, 6 h after AOM 10 mg/kg
[6] = 0.1 mg/g, n = 8, 6 h after AOM 10 mg/kg

Question: Which results are given for `O=C1Nc2cc(Br)ccc2C1=O` [6-bromoisatin, 6-Bromoindole-2,3-dione]?
Answer: reduction of cell viability ([1]; 0.01 mg/mL): no significant reduction; reduction of cell viability ([1]; 0.025 mg/mL): 26%; reduction of cell viability ([1]; 0.05 mg/mL): 53%; reduction of cell viability ([1]; 1 mg/mL): 64%; IC50 ([1]; Homo sapiens, HT-29, HT29 cells, MTT, 12 h treatment, 1% DMSO): 223 µM and 50 µg/mL; Albumin [2, 4]: 28.7 ± 1.5 g/L; Calcium [2, 4]: 2.2 ± 0.1 mmol/L; Creat. (Creatinine) [2, 4]: 13.3 ± 0.8 µmol/L; Globulin [2, 4]: 18.0 ± 1.4 g/L; NA/K (Sodium/Potassium ratio) [2, 4]: 29.1 ± 1.2; Potassium [2, 4]: 5.1 ± 0.2 mmol/L; Protein [2, 4]: 46.7 ± 2.8 g/L; Sodium [2, 4]: 147.7 ± 0.5 mmol/L; Urea [2, 4]: 9.7 ± 1.6 mmol/L; Albumin [2, 5]: 27.8 ± 1.5 g/L; Calcium [2, 5]: 2.2 ± 0.04 mmol/L; Creat. (Creatinine) [2, 5]: 14.7 ± 0.5 µmol/L; Globulin [2, 5]: 18.3 ± 0.8 g/L; NA/K (Sodium/Potassium ratio) [2, 5]: 33.5 ± 2.7; Potassium [2, 5]: 4.5 ± 0.4 mmol/L; Protein [2, 5]: 46.2 ± 1.9 g/L; Sodium [2, 5]: 149.7 ± 1.4 mmol/L; Urea [2, 5]: 9.9 ± 1.4 mmol/L; Albumin [2, 6]: 28.2 ± 1.5 g/L; Calcium [2, 6]: 2.2 ± 0.1 mmol/L; Creat. (Creatinine) [2, 6]: 14.6 ± 1.2 µmol/L; Globulin [2, 6]: 17.9 ± 1.2 g/L; NA/K (Sodium/Potassium ratio) [2, 6]: 34.1 ± 3.6; Potassium [2, 6]: 4.3 ± 0.4 mmol/L; Protein [2, 6]: 46.1 ± 2.2 g/L; Sodium [2, 6]: 149.7 ± 1.2 mmol/L; Urea [2, 6]: 9.6 ± 1.2 mmol/L; cell proliferation ([3]; 0.025 mg/g daily oral gavage two weeks): did not show a significant anti-proliferative effect; cell proliferation ([3]; 0.05 mg/g daily oral gavage two weeks): significantly reduced; reduction in cell proliferation ([3]; 0.1 mg/g daily oral gavage two weeks): more than 50%

From paper PMC3917258, “6-Bromoisatin Found in Muricid Mollusc Extracts Inhibits Colon Cancer Cell Proliferation and Induces Apoptosis, Preventing Early Stage Tumor Formation in a Colorectal Cancer Rodent Model” (Marine Drugs, 2013)
